# B1: Bclw: Recombinant His-tagged Bclw protein (R&D Systems) introduced by protein transfection (protein, UniProt Q92843 2-193, looked up)
# Bcl-2-like protein 2: ATPASAPDTRALVADFVGYKLRQKGYVCGAGPGEGPAADPLHQAMRAAGDEFETRFRRTFSDLAAQLHVTPGSAQQRFTQVSDELFQGGPNWGRLVAFFVFGAALCAESVNKEMEPLVGQVQEWMVAYLETQLADWIHSSGGWAEFTALYGDGALEEARRLREGNWASVRTVLTGAVALGALVTVGAFFASK
# modifications: His tag
# notes: Recombinant His-tagged Bclw protein (R&D Systems) introduced by protein transfection
# System: axons of E15 DRG sensory neurons
# Test: Axonal degeneration assay in compartmented chamber cultures (degeneration index)
# Assay type: cell-based, rat
# Protocol: Cell culture. Compartmented chamber (Campenot) cultures were prepared as described (see, e.g., Fenstermacher et al., Springer Protocols: Neuromethods, 103:105-124 (2015)), with modifications. Briefly, DRGs from embryonic day 15 (E15) rats of either sex were dissected and trypsinized. DRGs (1.2×10^5 cells) were plated in the center compartment of a Teflon divider (Camp10, Tyler Research; Campenot, 1982) affixed to a p35 culture dish coated with growth factor reduced Matrigel basement membrane (BD Biosciences) 1:45 in DMEM. Cultures were maintained in media consisting of Neurobasal (Invitrogen) with 2% B27 supplement (Invitrogen), 1% penicillin-streptomycin, 1% GlutaMAX (Life Technologies), 0.08% glucose, and 0.3 μM cytosine arabinoside (AraC) at 37° C., 7.5% CO2; BDNF+NGF (PeproTech) were added to the cell body compartment at a concentration of 10 ng/ml and to the axon compartment at a concentration of 100 ng/ml for 2d. On day 3, media was replaced and the AraC was omitted. On day 5, neurotrophins were removed from the cell body compartment and reduced to 1 ng/ml in the axon compartments for 3-5 days. […] For calpain inhibition experiments, 20 μM calpain inhibitor III (VWR) and paclitaxel were added simultaneously to distal axon compartment.
# Axonal degeneration assay. Compartmented chamber cultures were fixed at room temperature with 4% PFA diluted 1:2 in media for 10 min, then undiluted 4% PFA for an additional 20 min. Cultures were permeabilized with 0.1% TritonX-100 for 10 min, blocked in 3% BSA and 0.1% Triton X-100 for 1 hour at room temperature, and incubated with mouse anti-Tuj1 (1:400; clone Tuj1; Covance) overnight at 4° C. Cultures were then incubated with goat anti-mouse AlexaFluor (1:1000; Invitrogen) for 1 hour at room temperature and counterstained with DAPI. Images of distal axon tips were obtained using a 40× air objective, and axonal degeneration was quantified as a degeneration index, as previously described (Cosker et al., Neuroscience, 33:5195-5207 (2013)). Apoptosis analysis was carried out on the same cultures by taking images in the cell body compartment and counting total and condensed nuclei in NIH ImageJ software by an observer blind to condition.
# Protein and peptide introduction. Recombinant His-tagged Bclw, Bcl2, and BclxL proteins (R&D Systems) or control β-galactosidase protein were introduced into cell bodies or axons of compartmented chamber cultures as described (e.g., Cosker et al., Nature Neuroscience, 19:690-696 (2016)). Briefly, 1 μg/μ1 protein was introduced into cultures using 2 μl Chariot reagent (Active Motif). To confirm expression of His-tagged proteins, cell bodies and axons were lysed in nonionic detergent, and protein lysates were separated as above and blotted with the following antibodies: anti-His (1:1000; Novagen) and anti-pan-actin (1:1000; Cell Signaling Technology). FITC-tagged SAHB peptides (BH4-Bclw, BH4-Bcl2, and BH4-BclxL; stock solutions 1 mM in DMSO) were introduced into cell bodies or axons using 350 ng peptide and 2 μl of Chariot reagent diluted 1:10 in water. Control was no peptide with 2 μl of 1:10 diluted Chariot. To confirm peptide expression, cultures were processed for axonal degeneration assay as above, and FITC immunofluorescence was examined with a 40× air objective. Paclitaxel was added to cultures 1 hour after protein or peptide transfection.
# [1] = His-tagged recombinant protein transfected into axons
# [2] = protein introduced into cell bodies instead of axons
Molecule,effect on paclitaxel-induced axon degeneration [1],effect on paclitaxel-induced axon degeneration [2],"effect on paclitaxel-induced axon degeneration (20 μM to axons, added with paclitaxel)"
Bcl2: Recombinant His-tagged Bcl2 protein (R&D Systems) introduced by protein transfection,neither BclxL nor Bcl2 prevented degeneration,failed to inhibit paclitaxel-induced degeneration,
BclxL: Recombinant His-tagged BclxL protein (R&D Systems) introduced by protein transfection,neither BclxL nor Bcl2 prevented degeneration,failed to inhibit paclitaxel-induced degeneration,
calpain inhibitor III,,,prevented paclitaxel-induced degeneration
B1,completely prevented paclitaxel-induced axon degeneration,failed to inhibit paclitaxel-induced degeneration,

# Reference: patent US12441775B2, “BCL-W polypeptides and mimetics for treating or preventing chemotherapy-induced peripheral neuropathy and hearing loss” (Dana-Farber Cancer Institute, Inc., priority 2016, dated 2025)
